Reference: patent US20240285614A1, “PHENOL RIBONUCLEOTIDE REDUCTASE (RNR) INHIBITORS AND USES THEREOF” (Boundless Bio, Inc., priority 2023, published 2024)

Tests used:
[1] = tested on: pCHK1 (S345) in Colo320 DM cells; assay: Alphalisa assay, detection of pCHK1 (S345) in Colo320 DM cells; assay type: cell-based; details: Homo sapiens, COLO 320DM, compound incubation overnight (approximately 16 hours)
Experimental: Colo320 DM cells (ATCC #CCL-220, derived from human colorectal adenocarcinoma, Dukes' type C) were seeded on a 96-well, cell culture treated assay plate at a density of 50,000 cells/well in 200 μL of RPMI-1640 media supplemented with 10% Fetal Bovine Serum and incubated at 37° C. overnight. The following day, test compound dilutions were added directly to the plated cells by a Tecan digital dispenser to a final DMSO concentration of <0.5%, and incubated at 37° C. overnight (approximately 16 hours). The following day all cull culture media was removed from the cells. 75 μL of 1× AlphaLisa lysis buffer was added to each well and plates were agitated on a shaker for 30 minutes at room temperature. The lysis of cells and detection of pCHK1 (S345) were performed with regents contained within the AlphaLisa Sure Fire assay kit (Perkin Elmer #ALSU-PCHK1-A) according to the manufacturer's instructions. 10 μL of each lysate was then transferred to a white, 384-well assay plate (Perkin Elmer #6008280), 5 μL of Acceptor mix was then added to each well of lysate in the white, 384-well assay plate and incubated in the dark at room temperature for 60 minutes. 5 μL of Donor mix was then added to each well of the white, 384-well assay plate in subdued light and incubated at room temperature for 60 minutes. Plates were read on an Alpha Technology-compatible plate reader using standard AlphaLisa settings.

[2] = biological target: T1, RNR (RNR1:RNR2 1:1) (Homo sapiens, UniProt P23921+P31350); assay: RNR enzyme activity, rapid-fire mass spectrometry (RF/MS) assay; assay type: biochemical; details: RNR 50 nM, 1:1 (RNR1:RNR2); CDP 5 μM; ATP 1 mM; 37° C., 45 min; compounds screened up to 50 μM
T1 sequence (P23921 1-792): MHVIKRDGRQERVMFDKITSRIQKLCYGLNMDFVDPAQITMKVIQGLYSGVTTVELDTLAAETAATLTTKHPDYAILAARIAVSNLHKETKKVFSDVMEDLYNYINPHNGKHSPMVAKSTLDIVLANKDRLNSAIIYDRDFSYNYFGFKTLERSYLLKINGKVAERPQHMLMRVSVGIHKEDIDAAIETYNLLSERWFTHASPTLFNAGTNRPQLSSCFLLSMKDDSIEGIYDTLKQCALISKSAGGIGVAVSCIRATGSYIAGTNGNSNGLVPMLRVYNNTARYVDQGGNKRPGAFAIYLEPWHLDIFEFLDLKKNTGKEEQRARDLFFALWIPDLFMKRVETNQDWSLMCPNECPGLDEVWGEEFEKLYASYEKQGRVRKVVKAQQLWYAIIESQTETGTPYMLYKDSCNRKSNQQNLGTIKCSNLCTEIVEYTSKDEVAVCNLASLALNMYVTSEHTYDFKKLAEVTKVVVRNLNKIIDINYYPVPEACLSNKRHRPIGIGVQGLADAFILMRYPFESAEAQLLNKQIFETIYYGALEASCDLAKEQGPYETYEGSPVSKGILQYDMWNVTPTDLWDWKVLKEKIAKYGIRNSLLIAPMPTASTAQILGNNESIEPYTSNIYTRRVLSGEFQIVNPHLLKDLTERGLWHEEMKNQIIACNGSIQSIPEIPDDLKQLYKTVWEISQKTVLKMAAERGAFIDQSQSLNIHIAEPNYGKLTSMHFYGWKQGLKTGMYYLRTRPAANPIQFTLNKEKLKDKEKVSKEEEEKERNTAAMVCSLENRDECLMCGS
T1 sequence (P31350 1-389): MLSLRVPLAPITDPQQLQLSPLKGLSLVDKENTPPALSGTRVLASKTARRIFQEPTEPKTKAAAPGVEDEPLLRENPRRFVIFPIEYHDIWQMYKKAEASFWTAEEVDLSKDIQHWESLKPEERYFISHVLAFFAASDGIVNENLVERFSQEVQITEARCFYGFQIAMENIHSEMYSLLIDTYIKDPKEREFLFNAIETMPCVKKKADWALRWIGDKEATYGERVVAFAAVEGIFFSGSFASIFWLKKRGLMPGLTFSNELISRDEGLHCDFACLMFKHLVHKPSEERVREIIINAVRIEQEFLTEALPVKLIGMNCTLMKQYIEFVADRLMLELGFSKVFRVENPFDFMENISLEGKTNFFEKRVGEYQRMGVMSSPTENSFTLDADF
Experimental: A rapid-fire mass spectrometry (RF/MS) assay was used to assess RNR enzyme activity using a 384 well plate and a robotic platform.
The plate layout included two validated reference compounds (Triapine (3-AP) and Hydroxyurea (HU)): • A dose response in duplicate, top concentration: 5 μM (3-AP) and 250 μM (HU), semi-log • dilutions. • Spike wells in triplicate randomly spotted at four concentrations: • 250 μM, 100 μM, 30 μM and 2 μM for HU • 5 μM, 2 μM, 0.6 μM and 0.04 μM for 3-AP
First, the multidrop pipes were saturated for 30 minutes with enzymatic solution. Then 30 μL of Stop solution was distributed in column 24. Next, 15 μL of enzyme was distributed in column 1 to 24. Next, a pre-incubation step of 15 minutes at room temperature occurred, followed by distribution of 15 μL of substrate solution (column 1 to 24). Next, the plate was incubated for 45 minutes at 37° C. 30 μL of Stop solution was distributed to columns 1 to 23.
The final parameters for the enzyme reactions were: • Incubation: 37° C., 45 min • [CDP]: 5 μM: [ATP]: 1 mM; [NADPH]: No • [RNR]final: 50 nM with 1:1 (RNR1:RNR2) ratio • Final volume: 30 μL • Stop solution: 6% HCOOH containing 2 μM of 15

SMILES | IC50 [1] | IC50 [2]
CN(c1ccc(O)cc1)C1CCN(S(=O)(=O)c2ccc3cc[nH]c3c2)C1 (racemic) [compound 20, rac-(R)-4-((1-((1H-indol-6-yl)sulfonyl)pyrrolidin-3-yl)(methyl)amino)phenol] | ≤ 1000 nM | ≤ 50 nM
CN(c1ccc(O)cc1)C1CCN(S(=O)(=O)c2ccc3[nH]ccc3c2)C1 (racemic) [compound 30, rac-(R)-4-((1-((1H-indol-5-yl)sulfonyl)pyrrolidin-3-yl)(methyl)amino)phenol] | ≤ 1000 nM | ≤ 50 nM
CN(c1ccc(O)cc1)C1CCN(S(=O)(=O)c2cccc3[nH]ccc23)C1 (racemic) [compound 31, rac-(R)-4-((1-((1H-indol-4-yl)sulfonyl)pyrrolidin-3-yl)(methyl)amino)phenol] | 1000 to 5000 nM | ≤ 50 nM
CN(c1ccc(O)cc1)C1CCN(S(=O)(=O)c2cc3[nH]c(Cl)cc3cc2F)C1 (racemic) [compound 32, rac-(R)-4-((1-((2-chloro-5-fluoro-1H-indol-6-yl)sulfonyl)pyrrolidin-3-yl)(methyl)amino)phenol] | 1000 to 5000 nM | 
C[C@@H]1[C@H](Nc2ccc(O)cc2)CN1S(=O)(=O)c1ccc2cc[nH]c2c1 (racemic) [compound 36, rac-4-(((2R,3R)-1-((1H-indol-6-yl)sulfonyl)-2-methylazetidin-3-yl)amino)phenol] | 1000 to 5000 nM | 100 to 500 nM
C[C@@H]1C[C@H](N(C)c2ccc(O)cc2)CN1S(=O)(=O)c1ccc2cc[nH]c2c1 (racemic) [compound 37, rac-4-(((3R,5S)-1-((1H-indol-6-yl)sulfonyl)-5-methylpyrrolidin-3-yl)(methyl)amino)phenol] | 1000 to 5000 nM | ≤ 50 nM
CN(c1ccc(O)cc1)C1CN(S(=O)(=O)c2ccc3cc[nH]c3c2)C2(CC2)C1 (racemic) [compound 38, rac-(R)-4-((4-((1H-indol-6-yl)sulfonyl)-4-azaspiro[2.4]heptan-6-yl)(methyl)amino)phenol] | 1000 to 5000 nM | ≤ 50 nM
C[C@@H]1CN(S(=O)(=O)c2ccc3cc[nH]c3c2)C[C@H]1N(C)c1ccc(O)cc1 (racemic) [compound 39, rac-4-(((3R,4S)-1-((1H-indol-6-yl)sulfonyl)-4-methylpyrrolidin-3-yl)(methyl)amino)phenol] | 1000 to 5000 nM | ≤ 50 nM
C[C@H]1C[C@H](N(C)c2ccc(O)cc2)CN1S(=O)(=O)c1ccc2cc[nH]c2c1 (racemic) [compound 48, rac-4-(((3R,5R)-1-((1H-indol-6-yl)sulfonyl)-5-methylpyrrolidin-3-yl)(methyl)amino)phenol] | 1000 to 5000 nM | 
Cn1ccc2cccc(S(=O)(=O)N3CCN(c4ccc(O)cc4)CC3)c21 [compound 1, 4-(4-((1-methyl-1H-indol-7-yl)sulfonyl)piperazin-1-yl)phenol] | 5000 to 10000 nM | ≤ 50 nM
O=S(=O)(c1ccc2cc[nH]c2c1)N1CCN(c2ccc(O)cc2)CC1 [compound 2, 4-(4-((1H-indol-6-yl)sulfonyl)piperazin-1-yl)phenol] | 1000 to 5000 nM | 50 to 100 nM
Cn1ccc2ccc(S(=O)(=O)N3CCN(c4ccc(O)cc4)CC3)cc21 [compound 3, 4-(4-((1-methyl-1H-indol-6-yl)sulfonyl)piperazin-1-yl)phenol] | 5000 to 10000 nM | 100 to 500 nM
Cn1ccc2cc(S(=O)(=O)N3CCN(c4ccc(O)cc4)CC3)ccc21 [compound 4, 4-(4-((1-methyl-1H-indol-5-yl)sulfonyl)piperazin-1-yl)phenol] | 5000 to 10000 nM | 100 to 500 nM
O=S(=O)(c1cccc2cc[nH]c12)N1CCN(c2ccc(O)cc2)CC1 [compound 5, 4-(4-((1H-indol-7-yl)sulfonyl)piperazin-1-yl)phenol] | 1000 to 5000 nM | 100 to 500 nM
Cn1ccc2cc(S(=O)(=O)N3CCN(c4ccc(O)cc4)CC3)cnc21 [compound 6, 4-(4-((1-methyl-1H-pyrrolo[2,3-b]pyridin-5-yl)sulfonyl)piperazin-1-yl)phenol] | 10000 to 50000 nM | 100 to 500 nM
O=S(=O)(c1cccc2[nH]ccc12)N1CCN(c2ccc(O)cc2)CC1 [compound 7, 4-(4-((1H-indol-4-yl)sulfonyl)piperazin-1-yl)phenol] | 1000 to 5000 nM | 50 to 100 nM
O=S(=O)(c1ccc2cc[nH]c2c1)N1CC=C(c2ccc(O)cc2)CC1 [compound 8, 4-[1-(1H-indol-6-ylsulfonyl)-3,6-dihydro-2H-pyridin-4-yl]phenol] | 1000 to 5000 nM | 
O=S(=O)(c1ccc2[nH]ccc2c1)N1CCN(c2ccc(O)cc2)CC1 [compound 9, 4-(4-((1H-indol-5-yl)sulfonyl)piperazin-1-yl)phenol] | 5000 to 10000 nM | 100 to 500 nM
O=S(=O)(NC1CN(c2ccc(O)cc2)C1)c1ccc2cc[nH]c2c1 [compound 10, N-(1-(4-hydroxyphenyl)azetidin-3-yl)-1H-indole-6-sulfonamide] | 1000 to 5000 nM | 50 to 100 nM
O=S(=O)(c1ccc2cc[nH]c2c1)N1CC(Nc2ccc(O)cc2)C1 [compound 11, 4-((1-((1H-indol-6-yl)sulfonyl)azetidin-3-yl)amino)phenol] | 1000 to 5000 nM | ≤ 50 nM
CN(C1CCN(c2ccc(O)cc2)CC1)S(=O)(=O)c1ccc2cc[nH]c2c1 [compound 12, N-(1-(4-hydroxyphenyl)piperidin-4-yl)-N-methyl-1H-indole-6-sulfonamide] | 5000 to 10000 nM | ≤ 50 nM
CN(c1ccc(O)cc1)C1CN(S(=O)(=O)c2ccc3cc[nH]c3c2)C1 [compound 13, 4-((1-((1H-indol-6-yl)sulfonyl)azetidin-3-yl)(methyl)amino)phenol] | ≤ 1000 nM | ≤ 50 nM
O=S(=O)(c1ccc2cc[nH]c2c1)N1CCN(c2ccc(O)cc2)CC12CC2 [compound 33, 4-(4-((1H-indol-6-yl)sulfonyl)-4,7-diazaspiro[2.5]octan-7-yl)phenol] | 1000 to 5000 nM | 
O=C1C[C@@H]2CN(S(=O)(=O)c3ccc4cc[nH]c4c3)C[C@H](C1)N2c1ccc(O)cc1 [compound 42, (1R,5S)-3-((1H-indol-6-yl)sulfonyl)-9-(4-hydroxyphenyl)-3,9-diazabicyclo[3.3.1]nonan-7-one] | 1000 to 5000 nM | 
O=S(=O)(c1ccc2cc[nH]c2c1)N1CCC2C1CCCN2c1ccc(O)cc1 (centres unmarked) [compound 49, 4-(1-((1H-indol-6-yl)sulfonyl)octahydro-4H-pyrrolo[3,2-b]pyridin-4-yl)phenol] | 1000 to 5000 nM | 
